Laboratory results: patent US10689378B2, “Triazolopyridine compounds and uses thereof” (Novartis AG, priority 2016, dated 2020)
Where two headings read alike, the source gives them in different places.

What was measured:
[1] = molecular target: wild type PRC2 (wtPRC2) complex (Homo sapiens, UniProt O75530); assay: EED LC-MS assay (SAH production by PRC2); type: biochemical
Description: Compounds of the present invention were assessed for their ability to inhibit PRC2 activity in a pentameric complex of EZH2, SUZ12, EED, Rbap48 and AEBP in biochemical assays. The ability of compounds of the present invention to inhibit cellular activity of PRC2 was assessed by analysing histone H3 lysine 27 methylation in human cell lines. The ability of compounds of the present invention to inhibit cancers was derived from their ability to modulate activity in human cancer cell lines bearing specific dependence to PRC2 activity to maintain cancerous growth.
Representative compounds of the present invention were serially and separately diluted 3-fold in DMSO to obtain a total of eight or twelve concentrations. Then the test compounds at each concentration (120 nL of each) were transferred by Mosquito into a 384-well Perkin Elmer ProxiPlate 384 plus plates. Solutions (6 μL) of 24 nM the wild type PRC2 (wtPRC2) complex and 2 μM SAM in reaction buffer (20 mM Tris, pH 8.0, 0.1% BSA, 0.01% Triton, 0.5 mM DTT) were added to the wells that were then incubated with the test compound for 20 min. A 6 μL solution of 3 μM of the peptide substrate H3K27Me0 (histone H3[21-44]-biotin) in reaction buffer was added to initiate each reaction. The final components in the reaction solution include 12 nM wtPRC2 complex, 1 μM SAM, and 1.5 μM H3K27me0 peptide with varying concentration of the compounds. A positive control consisted of the enzyme, 1 μM SAM and 1.5 μM substrate in the absence of the test compound, and a negative control consisted of 1 μM SAM and 1.5 μM substrate only. Each reaction was incubated at rt for 120 min, then stopped by addition of 3 μL per of quench solution (2.5% TFA with 320 nM d4-SAH). The reaction mixture was centrifuged (Eppendorf centrifuge 5810, Rotor A-4-62) for 2 min at 2000 rpm and read on an API 4000 triple quadrupole mass spec with Turbulon Spray (Applied Biosystem) coupled with Prominence UFLC (Shimadzu). The levels of SAH production were then normalized based on the values coming from the positive and negative controls to give percent enzyme activities. The data were then fit to a dose response equation using the program Helios to get the IC50 values of the test compound.

[2] = test system: H3K27 methylation in G401 cell; assay: ELISA (H3K27 methylation) assay in G401 cells; type: cell-based, human
Procedure, shortened: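 IC50 from dose-response fit of percent inhibition relative to DMSO, using H3K27me3/me2 ELISA signal (ECL) normalized to histone H3. Histones HCl-extracted after 48 h compound exposure of G401 cells at up to 20 μM, 8- or 12-point 3-fold series.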

[3] = molecular target: T1, EED (1-441)-His protein (Homo sapiens, UniProt O75530); assay: EED-H3K27Me3 peptide competition binding assay by AlphaScreen
T1 construct: 30 nM EED (1-441)-His protein
Procedure, shortened: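 Serially diluted compound (12 points, 3-fold) incubated 20 min with 30 nM EED(1-441)-His and 15 nM biotin-H3K27Me3(19-33) peptide in 25 mM HEPES pH 8, 0.02% Tween-20, 0.5% BSA. Ni-chelate acceptor/streptavidin donor beads (10 μg/mL each) added, 1 h rt dark; 615 nm emission normalized to controls, dose-response fit for IC50.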

[4] = read-out: (b) IC50 EED LC-MS Qualified
[5] = Homo sapiens, G-401, read-out: (c) IC50 ELISA Qualified
[6] = read-out: (a) IC50 EED Alphascreen binding Qualified
[7] = PRC2 LC-MS assay, read-out: (b) IC50 EED LC-MS Qualified
[8] = Homo sapiens, G-401, H3K27 methylation ELISA, read-out: (c) IC50 ELISA Qualified
[9] = EED-H3K27Me3 peptide competition, AlphaScreen, read-out: (a) IC50 EED Alphascreen binding Qualified
[10] = read-out: (b) IC50, EED LC-MS Qualified
[11] = Homo sapiens, G-401, read-out: (c) IC50, ELISA Qualified
[12] = read-out: (a) IC50, EED Alphascreen binding Qualified

Sequence of wild type PRC2 (wtPRC2) complex (O75530 whole entry): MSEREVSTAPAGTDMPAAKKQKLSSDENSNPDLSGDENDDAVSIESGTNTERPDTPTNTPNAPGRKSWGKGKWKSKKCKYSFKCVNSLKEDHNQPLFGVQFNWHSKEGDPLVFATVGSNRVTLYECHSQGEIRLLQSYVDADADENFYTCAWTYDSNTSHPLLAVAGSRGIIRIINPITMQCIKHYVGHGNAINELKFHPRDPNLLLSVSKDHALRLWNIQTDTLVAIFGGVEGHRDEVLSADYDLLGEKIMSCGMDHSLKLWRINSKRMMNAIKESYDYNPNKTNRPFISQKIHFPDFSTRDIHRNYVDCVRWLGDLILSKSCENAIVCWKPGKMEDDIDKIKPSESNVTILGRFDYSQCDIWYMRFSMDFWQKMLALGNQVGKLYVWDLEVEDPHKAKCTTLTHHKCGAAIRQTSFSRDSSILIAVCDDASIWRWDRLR
Sequence of wild type PRC2 (wtPRC2) complex (Q15910 whole entry partner): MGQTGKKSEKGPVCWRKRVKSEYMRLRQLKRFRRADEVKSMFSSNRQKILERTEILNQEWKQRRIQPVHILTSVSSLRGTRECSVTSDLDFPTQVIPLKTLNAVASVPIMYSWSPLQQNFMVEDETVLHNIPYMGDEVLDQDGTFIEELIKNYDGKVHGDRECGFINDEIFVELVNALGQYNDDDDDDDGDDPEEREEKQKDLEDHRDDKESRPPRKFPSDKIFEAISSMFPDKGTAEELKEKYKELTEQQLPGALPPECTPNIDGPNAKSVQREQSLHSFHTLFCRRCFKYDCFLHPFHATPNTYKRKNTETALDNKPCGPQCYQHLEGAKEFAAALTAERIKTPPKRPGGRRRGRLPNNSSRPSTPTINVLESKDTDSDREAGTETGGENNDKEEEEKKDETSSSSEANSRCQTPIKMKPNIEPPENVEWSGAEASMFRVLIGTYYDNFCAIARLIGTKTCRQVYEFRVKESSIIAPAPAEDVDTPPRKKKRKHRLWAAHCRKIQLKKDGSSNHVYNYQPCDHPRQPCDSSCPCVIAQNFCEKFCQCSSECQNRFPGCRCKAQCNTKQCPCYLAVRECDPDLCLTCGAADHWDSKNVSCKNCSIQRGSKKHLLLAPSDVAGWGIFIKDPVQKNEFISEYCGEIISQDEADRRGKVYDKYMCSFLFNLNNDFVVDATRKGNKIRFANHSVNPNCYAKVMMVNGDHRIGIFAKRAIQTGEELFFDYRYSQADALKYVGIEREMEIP
Sequence of wild type PRC2 (wtPRC2) complex (Q15022 whole entry partner): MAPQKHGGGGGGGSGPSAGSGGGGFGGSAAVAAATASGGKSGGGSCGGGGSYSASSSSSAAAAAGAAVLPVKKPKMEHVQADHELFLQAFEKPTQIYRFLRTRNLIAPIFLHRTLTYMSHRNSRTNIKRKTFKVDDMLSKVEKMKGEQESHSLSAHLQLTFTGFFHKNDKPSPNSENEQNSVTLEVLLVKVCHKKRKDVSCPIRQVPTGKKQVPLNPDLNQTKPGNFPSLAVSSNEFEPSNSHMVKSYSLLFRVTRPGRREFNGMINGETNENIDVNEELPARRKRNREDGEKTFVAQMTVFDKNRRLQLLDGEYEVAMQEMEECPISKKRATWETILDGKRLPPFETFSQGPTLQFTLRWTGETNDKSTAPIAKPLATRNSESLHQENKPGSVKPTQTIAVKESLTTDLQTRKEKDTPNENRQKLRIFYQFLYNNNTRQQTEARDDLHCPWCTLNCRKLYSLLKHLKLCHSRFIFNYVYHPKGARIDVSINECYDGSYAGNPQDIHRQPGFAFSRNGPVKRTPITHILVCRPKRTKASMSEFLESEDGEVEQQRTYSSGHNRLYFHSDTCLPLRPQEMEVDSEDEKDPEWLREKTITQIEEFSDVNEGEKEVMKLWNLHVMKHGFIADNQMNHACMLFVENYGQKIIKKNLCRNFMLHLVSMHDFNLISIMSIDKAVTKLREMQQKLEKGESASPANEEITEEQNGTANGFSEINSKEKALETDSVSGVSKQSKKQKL
Sequence of wild type PRC2 (wtPRC2) complex (Q09028 whole entry partner): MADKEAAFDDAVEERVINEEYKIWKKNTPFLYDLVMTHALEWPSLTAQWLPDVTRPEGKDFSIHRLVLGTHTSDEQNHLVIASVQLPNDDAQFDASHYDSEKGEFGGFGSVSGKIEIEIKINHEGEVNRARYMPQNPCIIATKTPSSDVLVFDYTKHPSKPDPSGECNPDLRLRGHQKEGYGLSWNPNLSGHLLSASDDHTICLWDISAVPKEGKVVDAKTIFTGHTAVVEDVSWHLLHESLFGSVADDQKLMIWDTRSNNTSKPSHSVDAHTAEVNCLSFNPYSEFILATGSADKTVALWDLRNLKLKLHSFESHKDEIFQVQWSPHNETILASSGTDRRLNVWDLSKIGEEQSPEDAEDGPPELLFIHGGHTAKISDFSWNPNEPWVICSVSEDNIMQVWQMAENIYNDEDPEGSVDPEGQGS
Sequence of wild type PRC2 (wtPRC2) complex (Q6ZN18 whole entry partner): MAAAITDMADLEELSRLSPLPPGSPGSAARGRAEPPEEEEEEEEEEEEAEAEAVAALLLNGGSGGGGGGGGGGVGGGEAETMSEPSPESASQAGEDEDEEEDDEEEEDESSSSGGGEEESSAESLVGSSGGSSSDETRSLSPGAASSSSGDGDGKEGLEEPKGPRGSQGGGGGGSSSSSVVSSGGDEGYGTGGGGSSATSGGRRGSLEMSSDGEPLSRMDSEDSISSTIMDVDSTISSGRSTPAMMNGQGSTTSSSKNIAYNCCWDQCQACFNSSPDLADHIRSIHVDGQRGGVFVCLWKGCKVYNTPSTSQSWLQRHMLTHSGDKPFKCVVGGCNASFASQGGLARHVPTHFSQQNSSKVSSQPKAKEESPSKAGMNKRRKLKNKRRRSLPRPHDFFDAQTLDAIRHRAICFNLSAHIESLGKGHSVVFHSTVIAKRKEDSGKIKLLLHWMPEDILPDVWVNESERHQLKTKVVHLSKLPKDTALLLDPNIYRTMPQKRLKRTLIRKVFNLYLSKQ
T1 sequence (O75530 whole entry): as the sequence (O75530 whole entry) above

## COc1cccc(F)c1CNc1ccc(-n2ccnc2)c2nncn12 [Example 363, N-(2-fluoro-6-methoxybenzyl)-8-(1H-imidazol-1-yl)-[1,2,4]triazolo[4,3-a] pyridin-5-amine]
[1]; [4]
  IC50: 55.4 nM
[2]; [5]
  IC50: 19.3 nM
[3]; [6]
  IC50: 25 nM

## COc1ncc(-c2ccc(NCc3c(F)cccc3OC)n3cnnc23)c(C)n1 [Example 322, N-(2-fluoro-6-methoxybenzyl)-8-(2-methoxy-4-methylpyrimidin-5-yl)-[1,2,4]triazolo[4,3-a]pyridin-5-amine]
[1]; [7]
  IC50: 32.3 nM
[2]; [8]
  IC50: 7.1 nM
[3]; [9]
  IC50: 9.1 nM

## COc1cc(F)cc(F)c1CNc1ccc(-c2cccnc2C(F)F)c2nncn12 [Example 302, N-(2,4-difluoro-6-methoxybenzyl)-8-(2-(difluoromethyl)pyridin-3-yl)-[1,2,4]triazolo[4,3-a]pyridin-5-amine]
[1]; [7]
  IC50: 39.3 nM
[2]; [8]
  IC50: 9.8 nM
[3]; [9]
  IC50: 13.3 nM

## COc1cccc(F)c1CNc1ccc(-c2ccnc(CF)c2C)c2nncn12 [Example 278, N-(2-fluoro-6-methoxybenzyl)-8-(2-(fluoromethyl)-3-methylpyridin-4-yl)-[1,2,4] triazolo[4,3-a]pyridin-5-amine]
[1]; [7]
  IC50: 27 nM
[2]; [8]
  IC50: 6.4 nM
[3]; [9]
  IC50: 11 nM

## COc1cccc(F)c1CNc1ccc(-c2cnc(C)cc2C)c2nncn12 [Example 268, 8-(4,6-dimethylpyridin-3-yl)-N-(2-fluoro-6-methoxybenzyl)-[1,2,4]triazolo[4,3-a] pyridin-5-amine]
[1]; [7]
  IC50: 34 nM
[2]; [8]
  IC50: 21.4 nM
[3]; [9]
  IC50: 19.4 nM

## COc1ccccc1CNc1ccc(-c2ccc(CN(C)C)cc2)c2nncn12 [Example 15, 8-(4-((dimethylamino)methyl)phenyl)-N-(2-methoxybenzyl)-[1,2,4] triazolo[4,3-a]pyridin-5-amine]
[1]; [10]
  IC50: 66.3 nM
[2]; [11]
  IC50: 17.5 nM
[3]; [12]
  IC50: 14.9 nM

## COc1cccc(F)c1CNc1ccc(-c2ccnn2C(C)C)c2nncn12 [Example 232, N-(2-fluoro-6-methoxybenzyl)-8-(1-isopropyl-1H-pyrazol-5-yl)-[1,2,4] triazolo[4,3-a]pyridin-5-amine]
[1]; [7]
  IC50: 159 nM
[2]; [8]
  IC50: 62.2 nM
[3]; [9]
  IC50: 50 nM

## COc1ccccc1CNc1ccc(-c2ccnnc2)c2nncn12 [Example 26, N-(2-methoxybenzyl)-8-(pyridazin-4-yl)-[1,2,4] triazolo[4,3-a]pyridin-5-amine]
[1]; [10]
  IC50: 498 nM
[2]; [11]
  IC50: 47.7 nM
[3]; [12]
  IC50: 73.4 nM

## COc1cc(F)cc(F)c1CNc1ccc(-c2cnc(C)nc2OC)c2nncn12 [Example 373, N-(2,4-difluoro-6-methoxybenzyl)-8-(4-methoxy-2-methylpyrimidin-5-yl)-[1,2,4] triazolo[4,3-a]pyridin-5-amine]
[1]; [4]
  IC50: 494 nM
[2]; [5]
  IC50: 64.1 nM
[3]; [6]
  IC50: 48.7 nM

## COc1cc(F)cc(F)c1CNc1ccc(-c2ccc(CN(C)C)cc2)c2nncn12 [Example 162, N-(2,4-difluoro-6-methoxybenzyl)-8-(4-((dimethylamino)methyl)phenyl)-[1,2,4]triazolo[4,3-a]pyridin-5-amine]
[1]; [10]
  IC50: 77.5 nM
[2]; [11]
  IC50: 14.3 nM
[3]; [12]
  IC50: 16.6 nM

## COc1cccc(F)c1CNc1ccc(-c2cncnc2C(F)F)c2nncn12 [Example 290, 8-(4-(difluoromethyl)pyrimidin-5-yl)-N-(2-fluoro-6-methoxybenzyl)-[1,2,4] triazolo[4,3-a]pyridin-5-amine]
[1]; [7]
  IC50: 33.2 nM
[2]; [8]
  IC50: 4 nM
[3]; [9]
  IC50: 30.7 nM

## COc1cccc(F)c1CNc1ccc(-c2cncc(S(C)(=O)=O)c2)c2nncn12 [Example 140, N-(2-fluoro-6-methoxybenzyl)-8-(5-(methylsulfonyl)pyridin-3-yl)-[1,2,4]triazolo[4,3-a] pyridin-5-amine]
[1]; [10]
  IC50: 268 nM
[2]; [11]
  IC50: 18.8 nM
[3]; [12]
  IC50: 17.5 nM

## COc1cccc(F)c1CNc1ccc(-n2cnc(C)c2)c2nncn12 [Example 354, N-(2-fluoro-6-methoxybenzyl)-8-(4-methyl-1H-imidazol-1-yl)-[1,2,4]triazolo [4,3-a]pyridin-5-amine]
[1]; [4]
  IC50: 60.6 nM
[2]; [5]
  IC50: 21.4 nM
[3]; [6]
  IC50: 26.1 nM

## COc1cccc(F)c1CNc1ccc(-c2ccc(O)nc2)c2nncn12 [Example 151, 5-(5-((2-fluoro-6-methoxybenzyl)amino)-[1,2,4]triazolo[4,3-a]pyridin-8-yl) pyridin-2-ol]
[1]; [10]
  IC50: 676 nM
[2]; [11]
  IC50: 80.3 nM
[3]; [12]
  IC50: 66.4 nM

## COc1cccc(F)c1CNc1ccc(-c2cnc(C3CC3)cc2C)c2nncn12 [Example 270, 8-(6-cyclopropyl-4-methylpyridin-3-yl)-N-(2-fluoro-6-methoxybenzyl)-[1,2,4]triazolo[4,3-a]pyridin-5-amine]
[1]; [7]
  IC50: 106 nM
[2]; [8]
  IC50: 42.3 nM
[3]; [9]
  IC50: 27.3 nM

## CCc1nc(-c2ccc(NCc3c(F)cccc3OC)n3cnnc23)no1 [Example 10, 8-(5-Ethyl-1,2,4-oxadiazol-3-yl)-N-(2-fluoro-6-methoxybenzy)-[1,2,4]triazolo[4,3-a]pyridin-5-amine]
[1]; [10]
  IC50: 198 nM
[2]; read-out: (c) IC50, ELISA Qualified
  IC50: 9.3 nM
[3]; [12]
  IC50: 61.1 nM

## COc1cc(F)cc(F)c1CNc1ccc(-c2ccc(C#N)nc2C)c2nncn12 [Example 324, 5-(5-((2,4-difluoro-6-methoxybenzyl)amino)-[1,2,4]triazolo[4,3-a]pyridin-8-yl)-6-methylpicolinonitrile]
[1]; [7]
  IC50: 63.8 nM
[2]; [8]
  IC50: 15.9 nM
[3]; [9]
  IC50: 17.9 nM

## COc1cc(F)cc(F)c1CNc1ccc(-c2ccc(C)nc2C(F)F)c2nncn12 [Example 314, N-(2,4-difluoro-6-methoxybenzyl)-8-(2-(difluoromethyl)-6-methylpyridin-3-yl)-[1,2,4]triazolo [4,3-a]pyridin-5-amine]
[1]; [7]
  IC50: 110 nM
[2]; [8]
  IC50: 18.6 nM
[3]; [9]
  IC50: 22.3 nM

## COc1cccc(F)c1CNc1ccc(-c2cnn(C(C)C)c2C)c2nncn12 [Example 289, N-(2-fluoro-6-methoxybenzyl)-8-(1-isopropyl-5-methyl-1H-pyrazol-4-yl)-[1,2,4] triazolo[4,3-a]pyridin-5-amine]
[1]; [7]
  IC50: 128 nM
[2]; [8]
  IC50: 30.3 nM
[3]; [9]
  IC50: 28.4 nM

## COc1ccccc1CNc1ccc(-c2ccc([S+](C)[O-])cc2)c2nncn12 (stereo not drawn) [Example 102, N-(2-methoxybenzyl)-8-(4-(methylsulfinyl)phenyl)-[1,2,4]triazolo[4,3-a]pyridin-5-amine]
[1]; [10]
  IC50: 1460 nM
[2]; [11]
  IC50: 68.9 nM
[3]; [12]
  IC50: 61.9 nM

## COc1ccccc1CNc1ccc(-c2ccc(S(=O)(=O)N3CCN(C)CC3)cc2)c2nncn12 [Example 18, N-(2-methoxybenzyl)-8-(4-((4-methylpiperazin-1-yl)sulfonyl)phenyl)-[1,2,4] triazolo[4,3-a]pyridin-5-amine]
[1]; [10]
  IC50: 930 nM
[2]; [11]
  IC50: 114 nM
[3]; [12]
  IC50: 81.7 nM

## CCN1CCN(c2ccc(-c3ccc(NCc4ccccc4OC)n4cnnc34)cc2)CC1 [Example 152, 8-(4-(4-ethylpiperazin-1-yl)phenyl)-N-(2-methoxybenzyl)-[1,2,4]triazolo[4,3-a] pyridin-5-amine]
[1]; [10]
  IC50: 207 nM
[2]; [11]
  IC50: 101 nM
[3]; [12]
  IC50: 65.9 nM

## CO/N=C(\C)c1ccc(-c2ccc(NCc3c(F)cccc3OC)n3cnnc23)cn1 [Example 214, (E)-1-(5-(5-((2-fluoro-6-methoxybenzyl)amino)-[1,2,4]triazolo[4,3-a]pyridin-8-yl)pyridin-2-yl)ethanone O-methyl oxime]
[1]; [7]
  IC50: 965 nM
[2]; [8]
  IC50: 62.7 nM
[3]; [9]
  IC50: 55.2 nM
